Assay results: US10231956B2, “3-(1H-pyrrolo[3,2-C]pyridin-2-YL)-1 H-pyrazolo[4,3-B]pyridines and therapeutic uses thereof” (Samumed, LLC, priority 2015, dated 2019)

How the values were obtained:
Format in all cases: cell-based
[1] = test system: Wnt activity (Sp5-Luc reporter, SW480 colon carcinoma cells); experiment: Sp5-Luc reporter gene screening assay for Wnt activity in SW480 cells; details: Homo sapiens; for EC50: luminescence, overnight incubation; for inhibition at 10 µM: given for EC50 >10 μM, read-out: percent inhibition at 10 μM
Text: The screening assay for Wnt activity is described as follows. Reporter cell lines can be generated by stably transducing cancer cell lines (e.g., colon cancer) or primary cells (e.g., IEC-6 intestinal cells) with a lentiviral construct that includes a Wnt-responsive promoter driving expression of the firefly luciferase gene.
SW480 colon carcinoma cells were transduced with a lentiviral vector expressing luciferase with a human Sp5 promoter consisting of a sequence of eight TCF/LEF binding sites. SW480 cells stably expressing the Sp5-Luc reporter gene and a hygromycin resistance gene were selected by treatment with 150 μg/mL of hygromycin for 7 days. These stably transduced SW480 cells were expanded in cell culture and used for all further screening activities. Each compound was dissolved in DMSO as a 10 mM stock and used to prepare compound source plates. Serial dilution (1:3, 10-point dose-response curves starting from 10 μM) and compound transfer was performed using the ECHO 550 (Labcyte, Sunnyvale, Calif.) into 384-well white solid bottom assay plates (Greiner Bio-One) with appropriate DMSO backfill for a final DMSO concentration of 0.1%. For Sp5-Luc reporter gene assays, the cells were plated at 4,000 cells/well in 384-well plates with medium containing 1% fetal bovine serum and incubated overnight at 37° C. and 5% CO2. Following incubation, 20 μl of BrightGlo luminescence reagent (Promega) was added to each well of the 384-well assay plates. The plates were placed on an orbital shaker for 2 min and then luminescence was quantified using the Envision (Perkin Elmer) plate reader. Readings were normalized to DMSO only treated cells, and normalized activities were utilized for EC50 calculations using the dose-response log (inhibitor) vs. response-variable slope (four parameters) nonlinear regression feature available in GraphPad Prism 5.0 (or Dotmatics). For EC50 of >10 μM, the percent inhibition at 10 μM is provided.

[2] = test system: SW480 colon cancer cells; experiment: Cell viability assay (CellTiter-Blue) in SW480 colon cancer cells; details: Homo sapiens; for EC50: 96 h, four days, CellTiter-Blue; for inhibition at 10 µM: given for EC50 >10 μM, read-out: percent inhibition at 10 μM
Experimental: Representative compounds were screened using the following assay procedure to assess the effect on cell viability as described below.
Each compound was dissolved in DMSO as a 10 mM stock and used to prepare compound source plates. Serial dilution (1:3, 8-point dose-response curves from 10 μM to 0.0045 μM) and compound transfer was performed using the ECHO 550 (Labcyte, Sunnyvale, Calif.) into 96-well clear bottom, black-walled plates (Corning-Costar).
Approximately 2×10^3 SW480 colon cancer cells were seeded into each well and allowed to incubate in the presence or absence of compound for four days at 37° C./5% CO2. Eight replicates of DMSO-treated cells served as controls and cells treated with compound were performed in duplicate.
After incubation, 20 μL of CellTiter-Blue (Promega) was added to each well allowed to incubate for approximately 3 hours. This reagent was a buffered solution which contains resazurin, metabolically active cells were able to reduce rezarurin (blue) into resorufin (pink) which was highly fluorescent. This measured fluorescence was used as a readout for cell viability.
After incubation, the plates were read at Ex 560 nm Em 590 nm (Cytation 3, BioTek). Dose-response curves were generated and EC50 concentration values were calculated using non-linear regression curve fit in the GraphPad Prism (San Diego, Calif.) or Dotmatics' Studies Software (Bishops Stortford, UK). For EC50 of >10 μM, the percent inhibition at 10 μM is provided.

[3] = test system: primary human mesenchymal stem cells (hMSCs); experiment: Induction of chondrogenesis in primary human mesenchymal stem cells (nodule count); details: 144 h, 6 days; for Emax: TGF-β3 10 ng/mL as positive control, read-out: Max. Activity as % TGF-β3 activity; for EC50: concentration required to induce 50% levels of chondrogenesis vs TGF-β3, read-out: Conc (nM) of 50% TGF-β3 activity
Experimental: Representative compounds were screened using primary human mesenchymal stem cells (hMSCs) to determine their ability to induce chondrogenesis (process by which cartilage is developed).
Human Mesenchymal Stem Cell Culture: Primary human mesenchymal stem cells (hMSCs) were purchased from Lonza (Walkersville, Md.) and expanded in Mesenchymal Stem Cell Growth Media (Lonza). Cells between passage 3 and 6 were used for the experiments.
Compound Screening: Each compound was dissolved in DMSO as a 10 mM stock and used to prepare compound source plates. Serial dilution (1:3, 6-point dose-response curves from 2700 nM to 10 nM) and compound transfer was performed using the ECHO 550 (Labcyte, Sunnyvale, Calif.) into 96-well clear bottom assay plates (Greiner Bio-One) with appropriate DMSO backfill for a final DMSO concentration of 0.03%. hMSCs were plated at 20,000 cells/well in 250 μL/well Incomplete Chondrogenic Induction Medium (Lonza; DMEM, dexamethasone, ascorbate, insulin-transferrin-selenium [ITS supplement], gentamycin-amphotericin [GA-1000], sodium pyruvate, proline and L-glutamine). TGF-β3 (10 ng/mL) was used as a positive control for differentiation while negative control wells were treated with 75 nL DMSO for normalization and calculating EC50 values. Cells were incubated at 37° C. and 5% CO2 for 6 days. To image chondrogenic nodules, the cells were fixed using 4% formaldehyde (Electron Microscopy Sciences), and stained with 2 μg/mL Rhodamine B (Sigma-Aldrich) and 20 μM Nile Red (Sigma-Aldrich) [Johnson K., et. al, A Stem Cell-Based Approach to Cartilage Repair, Science, (2012), 336(6082), 717-721]. The nodules imaged (4 images per well at 4× magnification) by excitation at 531 nm and emission at 625 nm and quantified using the CellInsight CX5 (Thermo Scientific). Number of nodules in each well was normalized to the average of 3 DMSO treated wells on the same plate using Excel (Microsoft Inc.). The normalized averages (fold change over DMSO) of 3 replicate wells for each compound concentration were calculated. Due to solubility limitations of some of the compounds, curve fitting was incomplete leading to inaccurate EC50 determinations.
Using TGF-β3 as a positive control, the concentration of representative compounds required to induce 50% levels of chondrogenesis is reported. In addition, the maximum activity of each compound and the respective dose that each compound reached maximum chondrogenesis activity is reported.

| Compound | EC50 [1] | EC50 [2] | Emax [3] | EC50 [3] | inhibition at 10 µM [2] | inhibition at 10 µM [1] |
| --- | --- | --- | --- | --- | --- | --- |
| c1cc2[nH]c(-c3n[nH]c4ccc(-c5cncc(OCCN6CCCC6)c5)nc34)cc2cn1 [Compound 658, 5-(5-(2-(Pyrrolidin-1-yl)ethoxy)pyridin-3-yl)-3-(1H-pyrrolo[3,2-c]pyridin-2-yl)-1H-pyrazolo[4,3-b]pyridine] | 3910 nM | 2070 nM | 23% |  |  |  |
| CN1CCN(c2nccc3[nH]c(-c4n[nH]c5ccc(-c6cncc(CN7CCCCC7)c6)nc45)cc23)CC1 [Compound 239, 3-(4-(4-methylpiperazin-1-yl)-1H-pyrrolo[3,2-c]pyridin-2-yl)-5-(5-(piperidin-1-ylmethyl)pyridin-3-yl)-1H-pyrazolo[4,3-b]pyridine] | 4280 nM | 1850 nM | 71% | 10 nM |  |  |
| CN(C)c1cncc(-c2ccc3[nH]nc(-c4cc5c(-c6cccc(F)c6)nccc5[nH]4)c3n2)c1 [Compound 7, 5-(3-(4-(3-Fluorophenyl)-1H-pyrrolo[3,2-c]pyridin-2-yl)-1H-pyrazolo[4,3-b]pyridin-5-yl)-N,N-dimethylpyridin-3-amine] | 746 nM | 483 nM | 153% | 2700 nM |  |  |
| Fc1cccc(-c2nccc3[nH]c(-c4n[nH]c5ccc(-c6cccnc6)nc45)cc23)c1 [Compound 4, 3-(4-(3-Fluorophenyl)-1H-pyrrolo[3,2-c]pyridin-2-yl)-5-(pyridin-3-yl)-1H-pyrazolo[4,3-b]pyridine] | 1490 nM | > 10000 nM | 45% |  | 25% |  |
| Cc1ccncc1-c1ccc2[nH]nc(-c3cc4c(-c5cc(F)cc(CNS(C)(=O)=O)c5)nccc4[nH]3)c2n1 [Compound 481, N-(3-Fluoro-5-(2-(5-(4-methylpyridin-3-yl)-1H-pyrazolo[4,3-b]pyridin-3-yl)-1H-pyrrolo[3,2-c]pyridin-4-yl)benzyl)methanesulfonamide] | 313 nM | 1040 nM | 98% | 10 nM |  |  |
| Fc1ccc(-c2nccc3[nH]c(-c4n[nH]c5ccc(-c6cncc(CN7CCC(F)(F)C7)c6)nc45)cc23)cc1 [Compound 54, 5-(5-((3,3-Difluoropyrrolidin-1-yl)methyl)pyridin-3-yl)-3-(4-(4-fluorophenyl)-1H-pyrrolo[3,2-c]pyridin-2-yl)-1H-pyrazolo[4,3-b]pyridine] | 599 nM | 516 nM | 106% | 900 nM |  |  |
| Fc1cccc(-c2nccc3[nH]c(-c4n[nH]c5ccc(-c6cncc(OCc7ccccc7)c6)nc45)cc23)c1 [Compound 518, 5-(5-(Benzyloxy)pyridin-3-yl)-3-(4-(3-fluorophenyl)-1H-pyrrolo[3,2-c]pyridin-2-yl)-1H-pyrazolo[4,3-b]pyridine] | 4410 nM | 1360 nM |  |  |  |  |
| CN1CCN(c2nccc3[nH]c(-c4n[nH]c5ccc(-c6cncc(NC(=O)CC7CCNCC7)c6)nc45)cc23)CC1 [Compound 641, N-(5-(3-(4-(4-Methylpiperazin-1l-yl)-1H-pyrrolo[3,2-c]pyridin-2-yl)-1H-pyrazolo[4,3-b]pyridin-5-yl)pyridin-3-yl)-2-(piperidin-4-yl)acetamide] | > 10000 nM | > 10000 nM |  |  | 16.3% | 2.1% |
| Cc1ccncc1-c1ccc2[nH]nc(-c3cc4c(-c5ccc(F)cc5)nccc4[nH]3)c2n1 [Compound 33, 3-(4-(4-Fluorophenyl)-1H-pyrrolo[3,2-c]pyridin-2-yl)-5-(4-methylpyridin-3-yl)-1H-pyrazolo[4,3-b]pyridine] | > 10000 nM | 4470 nM |  |  |  | 37.3% |
| Nc1cncc(-c2ccc3[nH]nc(-c4cc5c(-c6ccncc6)nccc5[nH]4)c3n2)c1 [Compound 115, 5-(3-(4-(Pyridin-4-yl)-1H-pyrrolo[3,2-c]pyridin-2-yl)-1H-pyrazolo[4,3-b]pyridin-5-yl)pyridin-3-amine] | 452 nM | > 10000 nM |  |  | 5.4% |  |
| CN1CCN(c2nccc3[nH]c(-c4n[nH]c5ccc(-c6cncc(NC(=O)c7ccccc7)c6)nc45)cc23)CC1 [Compound 235, N-(5-(3-(4-(4-Methylpiperazin-1l-yl)-1H-pyrrolo[3,2-c]pyridin-2-yl)-1H-pyrazolo[4,3-b]pyridin-5-yl)pyridin-3-yl)benzamide] | > 10000 nM | > 10000 nM |  |  | 29.1% | 49.1% |
| O=C(Nc1cncc(-c2ccc3[nH]nc(-c4cc5c(-c6cccc(F)c6)nccc5[nH]4)c3n2)c1)C1CCCCC1 [Compound 23, N-(5-(3-(4-(3-Fluorophenyl)-1H-pyrrolo[3,2-c]pyridin-2-yl)-1H-pyrazolo [4,3-b]pyridin-5-yl)pyridin-3-yl)cyclohexanecarboxamide] | 1280 nM | 505 nM |  |  |  |  |
| CC(C)CC(=O)Nc1cncc(-c2ccc3[nH]nc(-c4cc5c(N6CCN(C)CC6)nccc5[nH]4)c3n2)c1 [Compound 226, 3-Methyl-N-(5-(3-(4-(4-methylpiperazin-1-yl)-1H-pyrrolo[3,2-c]pyridin-2-yl)-1H-pyrazolo[4,3-b]pyridin-5-yl)pyridin-3-yl)butanamide] | 3940 nM | > 10000 nM |  |  | 37.8% |  |
| O=C(Nc1cncc(-c2ccc3[nH]nc(-c4cc5c(-c6ccc(F)cc6)nccc5[nH]4)c3n2)c1)c1ccccc1 [Compound 39, N-(5-(3-(4-(4-Fluorophenyl)-1H-pyrrolo[3,2-c]pyridin-2-yl)-1H-pyrazolo [4,3-b]pyridin-5-yl)pyridin-3-yl)benzamide] | 692 nM | 177 nM |  |  |  |  |
| Fc1ccccc1-c1nccc2[nH]c(-c3n[nH]c4ccc(-c5cncnc5)nc34)cc12 [Compound 83, 3-(4-(2-Fluorophenyl)-1H-pyrrolo[3,2-c]pyridin-2-yl)-5-(pyrimidin-5-yl)-1H-pyrazolo[4,3-b]pyridine] | > 10000 nM | > 10000 nM |  |  | 27.9% | 2.1% |
| c1csc(-c2nccc3[nH]c(-c4n[nH]c5ccc(-c6ccncc6)nc45)cc23)c1 [Compound 354, 5-(Pyridin-4-yl)-3-(4-(thiophen-2-yl)-1H-pyrrolo[3,2-c]pyridin-2-yl)-1H-pyrazolo[4,3-b]pyridine] | > 10000 nM | 2820 nM |  |  |  | 33.6% |
